B1: Cy3 TNF ARE RNA probe (ssRNA)
RNA: AUUAUUUAUUAUUUAUUUAUUAUUUA

Tests used:
HuR = target: T1, HuR (Homo sapiens, UniProt Q15717); experiment: REMSA of recombinant HuR with Cy3 AU-rich RNA probe at equilibrium; type: biochemical
T1 construct: gene ELAVL1; recombinant HuR (HuR-cMyc-His)

HuD = target: T2, HuD (Homo sapiens, UniProt P26378); experiment: REMSA of purified HuD with Cy3 AU-rich RNA probe; type: biochemical
T2 construct: gene ELAVL4; HuD-His, expressed in HEK293T cells and purified

HuR M2_M3 = HuR M2_M3 (human, UniProt Q15717 117-326); experiment: equilibrium binding, assay not stated (REMSA or AlphaScreen); no DHTS; limited effect of DHTS; REMSA/AlphaScreen buffers as in ref 23 (not given); pull-down lysates: 20 mM HEPES pH 7.5, 50 mM KCl, 0.5 ug BSA, 0.25% glycerol, 4 C; conditions: protein: recombinant; tags: His; label: 5'-Cy3; single strand
HuR M2_M3, sequence (Q15717 117-326): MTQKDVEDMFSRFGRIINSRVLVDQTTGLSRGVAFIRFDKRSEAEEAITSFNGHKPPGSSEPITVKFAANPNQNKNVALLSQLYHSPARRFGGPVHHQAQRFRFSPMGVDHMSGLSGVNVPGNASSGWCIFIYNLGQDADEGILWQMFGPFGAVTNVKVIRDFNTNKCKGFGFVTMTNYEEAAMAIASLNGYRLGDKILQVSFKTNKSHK

HuR M1_M2 = HuR M1_M2 (human, UniProt Q15717 1-197); experiment: equilibrium binding, assay not stated (REMSA or AlphaScreen); no DHTS; DHTS inhibits, Ki 4.12 nM; REMSA/AlphaScreen buffers as in ref 23 (not given); pull-down lysates: 20 mM HEPES pH 7.5, 50 mM KCl, 0.5 ug BSA, 0.25% glycerol, 4 C; conditions: protein: recombinant; tags: His; label: 5'-Cy3; single strand
HuR M1_M2, sequence (Q15717 1-197): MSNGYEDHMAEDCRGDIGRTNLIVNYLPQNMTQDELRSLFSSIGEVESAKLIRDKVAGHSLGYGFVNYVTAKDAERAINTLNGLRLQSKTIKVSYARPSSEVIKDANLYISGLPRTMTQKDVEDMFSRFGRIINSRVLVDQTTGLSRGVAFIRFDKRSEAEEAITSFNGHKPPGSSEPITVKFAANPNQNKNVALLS

T1 sequence (Q15717 2-326): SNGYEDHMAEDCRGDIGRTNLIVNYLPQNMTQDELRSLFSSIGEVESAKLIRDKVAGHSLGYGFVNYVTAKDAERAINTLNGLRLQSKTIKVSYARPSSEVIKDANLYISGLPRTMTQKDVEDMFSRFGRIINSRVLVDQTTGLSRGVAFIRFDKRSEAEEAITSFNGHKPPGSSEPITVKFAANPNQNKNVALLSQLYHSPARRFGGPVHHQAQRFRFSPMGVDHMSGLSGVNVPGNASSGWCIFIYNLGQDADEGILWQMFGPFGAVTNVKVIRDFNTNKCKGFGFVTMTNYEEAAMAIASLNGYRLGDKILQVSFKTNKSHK
T2 sequence (P26378 whole entry): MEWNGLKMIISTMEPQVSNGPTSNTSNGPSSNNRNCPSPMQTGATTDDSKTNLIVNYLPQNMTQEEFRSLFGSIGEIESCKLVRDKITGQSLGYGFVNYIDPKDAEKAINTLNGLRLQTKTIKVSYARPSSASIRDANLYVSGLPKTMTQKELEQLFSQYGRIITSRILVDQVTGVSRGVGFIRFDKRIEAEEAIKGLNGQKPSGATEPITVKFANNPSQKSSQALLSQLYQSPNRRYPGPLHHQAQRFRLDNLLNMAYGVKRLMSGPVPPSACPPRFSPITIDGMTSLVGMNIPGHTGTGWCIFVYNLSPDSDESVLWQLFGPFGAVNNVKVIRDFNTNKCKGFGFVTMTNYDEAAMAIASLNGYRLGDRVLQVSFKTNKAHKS

Molecule	REMSA of recombinant HuR with Cy3 AU-rich RNA probe at equilibrium (HuR)	other results
Cc1coc2c1C(=O)C(=O)c1c-2ccc2c(C)cccc12 [TanI, Tanshinone I]	the potency of tanshinone I was comparable to DHTS at equilibrium (Fig. 2B)	–
Cc1cccc2c3c(ccc12)C1=C(C(=O)C3=O)[C@@H](C)CO1 [15,16-dihydrotanshinone-I]	–	REMSA of purified HuD with Cy3 AU-rich RNA probe (HuD): only HuD-RNA complex formation was affected by DHTS at the reference doses
Cc1coc2c1C(=O)C(=O)c1c-2ccc2c1CCCC2(C)C [TanII, Tanshinone IIA]	while cryptotanshinone and tanshinone IIA were less potent (micromolar range)	–
C[C@H]1COC2=C1C(=O)C(=O)c1c2ccc2c1CCCC2(C)C [Cryptotanshinone]	while cryptotanshinone and tanshinone IIA were less potent (micromolar range)	–
B1	–	Kd (HuR M2_M3): ~0.024 µM; Kd (HuR M1_M2): 0.00266 µM

Source: article PMC4639722, “Dihydrotanshinone-I interferes with the RNA-binding activity of HuR affecting its post-transcriptional function” (Scientific Reports, 2015)
